Here are results for one compound from ChEMBL document CHEMBL5030560, “Berberine Molecular Recognition of the Parallel MYC G-Quadruplex in Solution” (J Med Chem, 2021).

Activity calls are given as the source filed them. No cut-off for these calls is given here.

Common to all, as to type: nucleic-acid assay
Test [1] concerns Quadruplex DNA. The test is described as follows: Binding affinity to human MycG4 DNA (unknown origin) assessed as compound-DNA complex at 3:1 ratio by 1D NMR analysis.
Test [2] relates to Quadruplex DNA. In words: Binding affinity to human MycG4 DNA (unknown origin) assessed as compound-DNA complex at 2:1 ratio by mass spectroscopy.
The target in test [3] is Quadruplex DNA. The test is described as follows: Binding affinity to human MycG4 DNA (unknown origin) assessed as apparent dissociation constant by fluorescence based binding assay. Conditions: read-out: Kd(app).

As to `COc1ccc2cc3[n+](cc2c1OC)CCc1cc2c(cc1-3)OCO2` [BERBERINE], the result with Quadruplex DNA [1] and with Quadruplex DNA [2] was Active. Moreover, the Kd at Quadruplex DNA [3] worked out at 9.9 µM.
